US20100003217A1, “Compounds and Pharmaceutical Compositions for the Treatment of Viral Infections” (priority 2008, published 2010)
Several values for one entry are separate records, joined by “and”; a condition that tells them apart may be missing. Identical values can stand only once.

Tested on: rat primary hepatocytes
Experiment: Metabolic disposition of [^14C]-Compound 1 and [^14C]-2′-C-methyl guanosine in rat primary hepatocytes (incubation medium, cellular extracts, nucleotide levels)
Assay type: in vitro ADME, Sprague Dawley rat
Settings: for Compound 7 AUC0-24h: rat hepatocytes (n=1); for AUC (area under the concentration-time curve) of Compound 7 levels: 0-24 h
Summary of the method: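 Rat, monkey or human primary hepatocytes on collagen I plates (1.6 million cells/mL) were incubated at 37° C with 1 or 10 μM C-8 [^14C]-labelled compound or 2′-C-methyl guanosine for 1, 4, 8 and 24 hours. Medium and 70% methanol cell extracts were analysed by LSC and radio-HPLC. Nucleotides were identified by alkaline phosphatase treatment and retention-time matching to standards.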

[1] = rat hepatocytes (Rs458), 1 μM [^14C]-Compound 1, 1 h
[2] = rat hepatocytes (Rs458), 1 μM [^14C]-Compound 1, 8 h
[3] = rat hepatocytes (Rs458), 1 μM [^14C]-Compound 1, 24 h
[4] = rat hepatocytes Rs448, 10 μM [^14C]-2′-C-methyl guanosine, 1 h
[5] = rat hepatocytes Rs448, 10 μM [^14C]-2′-C-methyl guanosine, 4 h
[6] = rat hepatocytes Rs448, 10 μM [^14C]-2′-C-methyl guanosine, 8 h
[7] = rat hepatocytes Rs448, 10 μM [^14C]-2′-C-methyl guanosine, 24 h
[8] = rat hepatocytes Rs458, 1 μM [^14C]-2′-C-methyl guanosine, 1 h
[9] = rat hepatocytes Rs458, 1 μM [^14C]-2′-C-methyl guanosine, 8 h
[10] = rat hepatocytes Rs458, 1 μM [^14C]-2′-C-methyl guanosine, 24 h
[11] = rat hepatocytes Rs458, 10 μM [^14C]-2′-C-methyl guanosine, 1 h
[12] = rat hepatocytes Rs458, 10 μM [^14C]-2′-C-methyl guanosine, 4 h
[13] = rat hepatocytes Rs458, 10 μM [^14C]-2′-C-methyl guanosine, 8 h
[14] = rat hepatocytes Rs458, 10 μM [^14C]-2′-C-methyl guanosine, 24 h

metabolites observed in cellular extracts (% of total radioactivity) (rat hepatocytes (Rs448, Rs458), 10 μM [^14C]-Compound 1, 1 h, listed as Compd 7): 59.0% and 50.8% | metabolites observed in cellular extracts (% of total radioactivity) (rat hepatocytes (Rs448, Rs458), 10 μM [^14C]-Compound 1, 4 h, listed as Compd 7): 70.9% and 69.1% | metabolites observed in cellular extracts (% of total radioactivity) (rat hepatocytes (Rs448, Rs458), 10 μM [^14C]-Compound 1, 8 h, listed as Compd 7): 73.0% and 72.5% | metabolites observed in cellular extracts (% of total radioactivity) (rat hepatocytes (Rs448, Rs458), 10 μM [^14C]-Compound 1, 24 h, listed as Compd 7): 66.2% and 54.5% | 2′-C-methyl guanosine nucleotide levels in cellular extracts [1]: 80.0 pmol/million cells | metabolites observed in cellular extracts (% of total radioactivity) [1]: 50.5% | 2′-C-methyl guanosine nucleotide levels in cellular extracts [2]: 238 pmol/million cells | metabolites observed in cellular extracts (% of total radioactivity) [2]: 77.6% | 2′-C-methyl guanosine nucleotide levels in cellular extracts [3]: 103 pmol/million cells | metabolites observed in cellular extracts (% of total radioactivity) [3]: 62.1% | Compound 7 AUC0-24h (1 μM [^14C]-2′-C-methyl guanosine): 458 pmol*h/million cells | Compound 7 AUC0-24h (1 μM [^14C]-Compound 1): 3,881 pmol*h/million cells | 2′-C-methyl guanosine nucleotide levels in cellular extracts (rat hepatocytes Rs448, 10 μM [^14C]-2′-C-methyl guanosine, 0 h): 0 pmol/million cells | AUC (area under the concentration-time curve) of Compound 7 levels (rat hepatocytes Rs448, 10 μM [^14C]-2′-C-methyl guanosine): 5906 pmol * hr/million cells | 2′-C-methyl guanosine nucleotide levels in cellular extracts [4]: 28.0 pmol/million cells | Major metabolites observed in cellular extracts (% of total radioactivity) [4]: 5.21 % of total radioactivity | 2′-C-methyl guanosine nucleotide levels in cellular extracts [5]: 141 pmol/million cells | Major metabolites observed in cellular extracts (% of total radioactivity) [5]: 17.9 % of total radioactivity | Major metabolites observed in cellular extracts (% of total radioactivity) [6]: 24.1 % of total radioactivity | 2′-C-methyl guanosine nucleotide levels in cellular extracts [7]: 347 pmol/million cells | Major metabolites observed in cellular extracts (% of total radioactivity) [7]: 35.6 % of total radioactivity | 2′-C-methyl guanosine nucleotide levels in cellular extracts (rat hepatocytes Rs448, 10 μM [^14C]-Compound 1, 0 h): 0 pmol/million cells | AUC (area under the concentration-time curve) of Compound 7 levels (rat hepatocytes Rs448, 10 μM [^14C]-Compound 1): 31568 pmol * hr/million cells | 2′-C-methyl guanosine nucleotide levels in cellular extracts (rat hepatocytes Rs448, 10 μM [^14C]-Compound 1, 1 h): 580 pmol/million cells | 2′-C-methyl guanosine nucleotide levels in cellular extracts (rat hepatocytes Rs448, 10 μM [^14C]-Compound 1, 4 h): 1429 pmol/million cells | 2′-C-methyl guanosine nucleotide levels in cellular extracts (rat hepatocytes Rs448, 10 μM [^14C]-Compound 1, 8 h): 1791 pmol/million cells | 2′-C-methyl guanosine nucleotide levels in cellular extracts (rat hepatocytes Rs448, 10 μM [^14C]-Compound 1, 24 h): 937 pmol/million cells | AUC (area under the concentration-time curve) of Compound 7 levels (rat hepatocytes Rs458, 1 μM [^14C]-2′-C-methyl guanosine): 458 pmol * hr/million cells | 2′-C-methyl guanosine nucleotide levels in cellular extracts [8]: 2.60 pmol/million cells | Major metabolites observed in cellular extracts (% of total radioactivity) [8]: 4.56 % of total radioactivity | 2′-C-methyl guanosine nucleotide levels in cellular extracts [9]: 20.1 pmol/million cells | Major metabolites observed in cellular extracts (% of total radioactivity) [9]: 26.1 % of total radioactivity | 2′-C-methyl guanosine nucleotide levels in cellular extracts [10]: 27.0 pmol/million cells | Major metabolites observed in cellular extracts (% of total radioactivity) [10]: 34.1 % of total radioactivity | AUC (area under the concentration-time curve) of Compound 7 levels (rat hepatocytes Rs458, 1 μM [^14C]-Compound 1): 3881 pmol * hr/million cells | 2′-C-methyl guanosine nucleotide levels in cellular extracts (rat hepatocytes Rs458, 10 μM [^14C]-2′-C-methyl guanosine, 0 h): 0 pmol/million cells | AUC (area under the concentration-time curve) of Compound 7 levels (rat hepatocytes Rs458, 10 μM [^14C]-2′-C-methyl guanosine): 5384 pmol * hr/million cells | 2′-C-methyl guanosine nucleotide levels in cellular extracts [11]: 23.0 pmol/million cells | Major metabolites observed in cellular extracts (% of total radioactivity) [11]: 4.42 % of total radioactivity | 2′-C-methyl guanosine nucleotide levels in cellular extracts [12]: 113 pmol/million cells | Major metabolites observed in cellular extracts (% of total radioactivity) [12]: 16.2 % of total radioactivity | 2′-C-methyl guanosine nucleotide levels in cellular extracts [13]: 239 pmol/million cells | Major metabolites observed in cellular extracts (% of total radioactivity) [13]: 27.0 % of total radioactivity | 2′-C-methyl guanosine nucleotide levels in cellular extracts [14]: 319 pmol/million cells | Major metabolites observed in cellular extracts (% of total radioactivity) [14]: 33.9 % of total radioactivity
SMILES: C[C@@]1(O)[C@H](O)[C@@H](COP(=O)(O)OP(=O)(O)OP(=O)(O)O)O[C@H]1n1cnc2c(=O)[nH]c(N)nc21 [Compound 7, [(2R)-2-methyl-β-D-ribofuranosyl]guanine 5′-triphosphate]
2′-C-methyl guanosine nucleotide levels in cellular extracts [6]: 258 pmol/million cells and 287 pmol/million cells
